What was measured:
[1] = test system: Salmonella typhimurium; assay: serial dilution test, MIC, Salmonella typhimurium; format: cell-based; conditions: Salmonella enterica, 37°, Gram-negative
Source text: (§1) The components display the following Rf values in a thin layer chromatogram on silica gel plates from Messrs. Merck (silica gel 60, F254): in chloroform/methanol (9:1): X=0.58; I=0.81; in benzene/methanol (9:1): X=0.26; I=0.30; in chloroform/acetone (5:5): X=0.40; I=0.53; and in benzene/acetone (5:5): X=0.47; I=0.74. In a serial dilution test the following minimum inhibitory concentrations (MIC) were found for Lysolipin I: […]

[2] = test system: Candida albicans; assay: activity against yeast-like fungi, Candida albicans; format: cell-based
[3] = test system: Candida lipolytica; assay: activity against yeast-like fungi, Candida lipolytica; format: cell-based
[4] = test system: Saccaromyces cerevisiae; assay: activity against yeast-like fungi, Saccaromyces cerevisiae; format: cell-based
[5] = test system: microbial cells; assay: activity against growing and dormant microbial cells and sphaeroplasts; format: cell-based; conditions: both growing and dormant cells
[6] = solubility; format: physicochemical
[7] = titration / microtitration (pK); format: physicochemical
Source text: (OCH3 : determination according to the method of Zeisel). Molecular weight, determined by vapour pressure osmometry in ethyl acetate; found 536. Microtitration with 0.1 N tetramethylammonium hydroxide in methylcellosolve/water (8:2): found pK^xMCS 9.72, equivalent weight 545. Titration with 0.1 N HCl; no step (N atom therefore not basic).

[8] = test system: Micro-organisms; assay: MIC of Lysolipin X compared with Lysolipin I, serial dilution test; format: cell-based; conditions: Lysolipin X relative to Lysolipin I
Source text: as §1

[9] = stability / conversion of Lysolipin X into Lysolipin I; format: physicochemical
Description: Lysolipin X was obtained as a colourless amorphous powder. […] The almost colourless amorphous powder thus obtained, that is to say Lysolipin X, can be crystallized from methanol; on heating the crystals undergo modification at 200° and melt at 260° C.
The pure product so obtained is stable in the absence of light and acid. In a thin layer chromatogram on silica gel in the system chloroform/methanol (39:1), Rf=0.22 (Rf of Lysolipin I=0.39). […] The signals at 0.9 and 1.3 ppm are probably to be ascribed to a fatty impurity. However, most of the signals in the range from 3 to 8 ppm are very similar to those of Lysolipin I and point to the close relationship between the two compounds.
On analogous working up, fractions 76-100 give an almost colourless amorphous powder (393 mg), which is Lysolipin X and cannot be purified by crystallisation. See FIGS. 7 and 8 for the NMR spectrum and the UV spectrum. On thin layer chromatography on silica gel in chloroform/methanol (39:1), Rf=0.22 (compared with 0.39 for Lysolipin I). On the thin layer plate, the spot for Lysolipin X, which is initially very pale and scarcely discernible, becomes deep yellow on standing in the air and, more rapidly, on warming.

Row | Structure (SMILES) | MIC [1] | activity against yeast-like fungi [2] | activity against yeast-like fungi [3] | activity against yeast-like fungi [4] | activity against growing and dormant microbial cells and their sphaeroplasts [5] | solubility in organic solvents ([6]; acetone, dimethylformamide, dimethylsulphoxide, ethyl acetate, hydrocarbons, halogenated hydrocarbons) | solubility in lower alkanols, ether and petroleum ether ([6]; methanol, ethanol, n-propanol, ether, petroleum ether) | solubility in water and aqueous acids and bases ([6]; water and aqueous acids and bases) | titration with HCl ([7]; 0.1 N HCl, N atom therefore not basic) | pKa ([7]; microtitration with 0.1 N tetramethylammonium hydroxide in methylcellosolve/water (8:2), read-out: pK^xMCS) | factor by which the MIC is higher [8] | stability to acid in solvent ([9]; chloroform or methanol with formic, acetic, hydrochloric or sulfuric acid) | stability on heating or irradiation with UV light ([9]; especially in the presence of catalytic amounts of acids) | stability of impure material ([9]; impure) | stability on storage ([9]; impure, stored in the air, unprotected from light, room temperature or higher) | stability of pure product ([9]; in the absence of light and acid) | stability on thin layer plate ([9]; silica gel plate, standing in the air, more rapidly on warming)
1 | COc1c(Cl)ccc2c(=O)c3c(O)c4c5c(c3oc12)OCOC5C(OC)c1cc2c(c(O)c1-4)C(=O)N(C)C(OC)C2O (stereo not drawn) [Lysolipin I] | > 100 µg/mL | display an activity | display an activity | display an activity | active | readily soluble | partially soluble | virtually insoluble | no step | 9.72 | – | – | – | – | – | – | –
2 | COc1c(Cl)ccc2c(=O)c3c(oc12)C1=C2C(OCO1)C(OC)c1cc4c(c(O)c1C2(O)C3O)C(=O)N(C)C(OC)C4O (stereo not drawn) [Lysolipin X] | – | display an activity | display an activity | display an activity | active | – | – | – | – | – | 10-50 | converted into Lysolipin I | forms Lysolipin I | unstable | gradually converted into Lysolipin I | stable | converted into Lysolipin I
